Laboratory results published in article PMC3881672, “In Vitro Permeation of Micronized and Nanonized Alaptide from Semisolid Formulations” (The Scientific World Journal, 2013).
Marks after values point to notes of the source that are not given here. Blank lines part the entries; values can stand above or below the molecule they belong to.

Key:
[1] = In vitro transdermal permeation, Franz diffusion cell; conditions: for Cumulative permeated amounts Q t: mean ± SD n = 5; for apparent permeability coefficient K p × 10^−3: Kp = J/Cd, Cd 1.0 × 10^4 μg/mL
[2] = test system: experimental injury; parameters: method as in ref 8 = [8]; 8 Radl S Kasafirek E Krejci I Alaptide Drugs of the Future 1990 15 445 447; conditions: pigs; cited from earlier work
[3] = parameters: method as in ref 8, 9 = [8]; 8 Radl S Kasafirek E Krejci I Alaptide Drugs of the Future 1990 15 445 447 || [9]; 9 Jampílek J Opatrilova R Rezacova A Oktabec Z Dohnal J Inventors; Faculty of Pharmacy, University of Veterinary and Pharmaceutical Sciences Brno, assignee, “Alaptide: Methods of effecting its solubil; conditions: octanol-water; cited from earlier work
[4] = parameters: method as in PMID 3726896, PMID 1687590; conditions: similar metabolic profile also found in man; cited from earlier work
[5] = test system: CYP1A1; parameters: method as in PMID 3726896, PMID 2905482; conditions: hepatocytes; cited from earlier work
[6] = parameters: method as in PMID 3726896, PMID 2905482; conditions: cited from earlier work
[7] = parameters: method as in ref 8, 9 = [8]; 8 Radl S Kasafirek E Krejci I Alaptide Drugs of the Future 1990 15 445 447 || [9]; 9 Jampílek J Opatrilova R Rezacova A Oktabec Z Dohnal J Inventors; Faculty of Pharmacy, University of Veterinary and Pharmaceutical Sciences Brno, assignee, “Alaptide: Methods of effecting its solubil; conditions: cited from earlier work
[8] = test system: experimental skin injuries; parameters: method as in ref 8 = [8]; 8 Radl S Kasafirek E Krejci I Alaptide Drugs of the Future 1990 15 445 447; conditions: rats; cited from earlier work
[9] = test system: CYP1B1; parameters: method as in PMID 3726896, PMID 2905482; conditions: hepatocytes; cited from earlier work
[10] = test system: CYP1A2; parameters: method as in PMID 3726896, PMID 2905482; conditions: hepatocytes; cited from earlier work

log K p ([1]; from buffer): −1.77
Cumulative permeated amounts Q t ([1]; from buffer, 0.5 h): 12.6 ± 1.9^a μg/cm^2
Cumulative permeated amounts Q t ([1]; from buffer, 1 h): 40.1 ± 8.0^a μg/cm^2
Cumulative permeated amounts Q t ([1]; from buffer, 2 h): 150.8 ± 7.2^a μg/cm^2
Cumulative permeated amounts Q t ([1]; from buffer, 4 h): 418.3 ± 24.6^b μg/cm^2
Cumulative permeated amounts Q t ([1]; from buffer, 6 h): 1189.0 ± 105.9^d μg/cm^2
Cumulative permeated amounts Q t ([1]; from buffer, 24 h): 3897.1 ± 295.6^f μg/cm^2
Cumulative permeated amounts Q t ([1]; from cream 1% (w/w), 0.5 h): 89.9 ± 4.0^a μg/cm^2
Cumulative permeated amounts Q t ([1]; from cream 1% (w/w), 1 h): 206.7 ± 8.9^a μg/cm^2
Cumulative permeated amounts Q t ([1]; from cream 1% (w/w), 2 h): 568.7 ± 7.2^b μg/cm^2
Cumulative permeated amounts Q t ([1]; from cream 1% (w/w), 4 h): 1414.5 ± 21.3^d μg/cm^2
Cumulative permeated amounts Q t ([1]; from cream 1% (w/w), 6 h): 2533.7 ± 9.2^f μg/cm^2
Cumulative permeated amounts Q t ([1]; from cream 1% (w/w), 24 h): 10602.6 ± 18.2^h μg/cm^2
log K p ([1]; from gel): −1.23
Cumulative permeated amounts Q t ([1]; from gel 1% (w/w), 0.5 h): 220.5 ± 11.1^abc μg/cm^2
Cumulative permeated amounts Q t ([1]; from gel 1% (w/w), 1 h): 401.6 ± 30.9^c μg/cm^2
Cumulative permeated amounts Q t ([1]; from gel 1% (w/w), 2 h): 626.4 ± 211.1^d μg/cm^2
Cumulative permeated amounts Q t ([1]; from gel 1% (w/w), 4 h): 1474.5 ± 306.9^f μg/cm^2
Cumulative permeated amounts Q t ([1]; from gel 1% (w/w), 6 h): 1927.6 ± 241.2^g μg/cm^2
Cumulative permeated amounts Q t ([1]; from gel 1% (w/w), 24 h): 13766.8 ± 92.8^i μg/cm^2
Cumulative permeated amounts Q t ([1]; from ointment 1% (w/w), 0.5 h): 75.3 ± 5.4^cd μg/cm^2
Cumulative permeated amounts Q t ([1]; from ointment 1% (w/w), 1 h): 84.8 ± 7.3^de μg/cm^2
Cumulative permeated amounts Q t ([1]; from ointment 1% (w/w), 2 h): 96.7 ± 5.9^fg μg/cm^2
Cumulative permeated amounts Q t ([1]; from ointment 1% (w/w), 4 h): 112.4 ± 7.3^h μg/cm^2
Cumulative permeated amounts Q t ([1]; from ointment 1% (w/w), 6 h): 126.4 ± 3.7^i μg/cm^2
Cumulative permeated amounts Q t ([1]; from ointment 1% (w/w), 24 h): 151.9 ± 9.5^j μg/cm^2
permeation through the skin, fold more than the nanonized form ([1]; from the buffer and other semisolid pharmaceutical compositions): ca. 2 fold
lag time T lag ([1]; medium buffer): 0.69 ± 0.38 h
apparent permeability coefficient K p × 10^−3 ([1]; medium buffer): 16.84 10^−3 cm/h
nonsteady-state permeation flux J ([1]; medium buffer, linearized Q t vs time, six time points): 168.4 ± 8.7 μg/cm^2/h
lag time T lag ([1]; medium cream): 0.57 ± 0.01 h
nonsteady-state permeation flux J ([1]; medium cream): 452.2 ± 0.8 μg/cm^2/h
apparent permeability coefficient K p × 10^−3 ([1]; medium cream): 45.22 10^−3 cm/h
lag time T lag ([1]; medium gel): 1.03 ± 0.23 h
nonsteady-state permeation flux J ([1]; medium gel): 588.0 ± 4.8 μg/cm^2/h
apparent permeability coefficient K p × 10^−3 ([1]; medium gel): 58.80 10^−3 cm/h
Compound: C[C@@H]1NC(=O)C2(CCCC2)NC1=O [Micro, (S)-8-Methyl-6,9-diazaspiro[4.5]decan-7,10-dione]

permeation through the skin from ointment ([1]; both forms of alaptide, ointment): minimal
Compound: C[C@@H]1NC(=O)C2(CCCC2)NC1=O [alaptide, (S)-8-Methyl-6,9-diazaspiro[4.5]decan-7,10-dione]
skin regeneration after application on experimental injury [2]: faster skin regeneration
experimental log P o/w [3]: 1.39
excretion [4]: excreted unchanged, mostly via urine
Induction of CYP1A1 [5]: did not occur
toxic effects (including skin irritation) [6]: No toxic effects
solubility [7]: poorly soluble
stability ([7]; sunlight): stable in the sunlight
curing of experimental skin injuries [8]: accelerated curing experimental skin injuries
Induction of CYP1B1 [9]: did not occur
Induction of CYP1A2 [10]: did not occur
